# Test results as given in the NIST ThermoML archive (doi:10.1021/je4001944).
# ± gives the expanded uncertainty stated by the source.
# Conditions: 101 kPa, Liquid
smiles,measurement,setting,value
CCCCCC[n+]1ccn(C)c1.O=S(=O)([N-]S(=O)(=O)C(F)(F)F)C(F)(F)F,mass density,298.15 K,1391 ± 11 kg/m3
same,mass density,308.15 K,1373 ± 11 kg/m3
same,mass density,323.15 K,1340 ± 10 kg/m3
CCCCCCCCn1cc[n+](C)c1.O=S(=O)([N-]S(=O)(=O)C(F)(F)F)C(F)(F)F,mass density,298.15 K,1343 ± 11 kg/m3
same,mass density,308.15 K,1323 ± 10 kg/m3
same,mass density,323.15 K,1287 ± 10 kg/m3
CCCCCCCCCCn1cc[n+](C)c1.O=S(=O)([N-]S(=O)(=O)C(F)(F)F)C(F)(F)F,mass density,298.15 K,1284 ± 10 kg/m3
same,mass density,308.15 K,1256 ± 10 kg/m3
same,mass density,323.15 K,1221 ± 10 kg/m3
